# Results reported in patent US20250312344A1, “COMBINATION THERAPIES USING PRMT5 INHIBITORS AND IMMUNE CHECKPOINT INHIBITORS FOR THE TREATMENT OF CANCER” (MIRATI THERAPEUTICS, INC., priority 2024, published 2025).
# Test system: murine syngeneic cancer model with a homozygous deletion of the Mtap gene (Mtap^DEL)
# Experiment: MRTX1719 + immune checkpoint blockade combination study, tumor growth in Mtap^DEL syngeneic model
# Format: in vivo, BALB/c mice
# Description: Immune-competent female BALB/c mice were implanted with murine syngeneic cancer model with a homozygous deletion of the Mtap gene (Mtap^DEL). Mouse health was monitored daily, and caliper measurements began when tumors were palpable. Tumor volume measurements were determined utilizing the formula 0.5×L×W2 in which L refers to length and W refers to width of each tumor. When tumors reached approximately 80 mm^3, animals were randomized to receive A) vehicle (0.5% methylcellulose (4000 cps)/0.2% Tween80 in water) and isotype control antibodies), B) immune checkpoint blockade antibodies targeting mouse-Ctla-4 and mouse-Pd-1 and vehicle, C) a PRMT5 inhibitor and isotype control antibodies, or D) the PRMT5 inhibitor and immune checkpoint blockade antibodies targeting mouse-Ctla-4 and mouse-Pd-1. Tumor volumes were measured two or three times per week (n=10/treatment group). Tumor Growth Inhibition (% TGI) was calculated using the formula: (1−(Final Drug Treated Tumor Volume−Initial Drug Treated Tumor Volume)/(Final Vehicle Treated Tumor Volume−Initial Vehicle Treated Tumor Volume))*100.
# This example was conducted according to the study procedure described above. The PRMT5 inhibitor was MRTX1719 administered at 100 mg/kg once a day (QD). MRTX1719 used is as described herein.
# The immune checkpoint antibody targeting mouse-Ctla-4 was dosed on Day 0 while the antibody targeting mouse-Pd-1 was dosed on Day 0, 3 and 6.
structure (smiles),measurement,setting,value
Cn1ncc(-c2ccc3c(=O)[nH]nc(CN)c3c2)c1-c1c(F)c(Cl)cc(OC2CC2)c1C#N [MRTX1719],Tumor volume,"Study Day 1, MRTX1719 100 mg/kg QD, aCTLA-4 Day 0, aPD-1 Day 0, 3, 6",115 mm^3
same,Tumor volume,"Study Day 3, MRTX1719 100 mg/kg QD, aCTLA-4 Day 0, aPD-1 Day 0, 3, 6",118 mm^3
same,Tumor volume,"Study Day 6, MRTX1719 100 mg/kg QD, aCTLA-4 Day 0, aPD-1 Day 0, 3, 6",154 mm^3
same,Tumor volume,"Study Day 8, MRTX1719 100 mg/kg QD, aCTLA-4 Day 0, aPD-1 Day 0, 3, 6",182 mm^3
same,Tumor volume,"Study Day 10, MRTX1719 100 mg/kg QD, aCTLA-4 Day 0, aPD-1 Day 0, 3, 6",233 mm^3
same,Tumor volume,"Study Day 13, MRTX1719 100 mg/kg QD, aCTLA-4 Day 0, aPD-1 Day 0, 3, 6",352 mm^3
same,Tumor volume,"Study Day 15, MRTX1719 100 mg/kg QD, aCTLA-4 Day 0, aPD-1 Day 0, 3, 6",558 mm^3
same,Tumor volume,"Study Day 17, MRTX1719 100 mg/kg QD, aCTLA-4 Day 0, aPD-1 Day 0, 3, 6",858 mm^3
same,Tumor volume,"Study Day 20, MRTX1719 100 mg/kg QD, aCTLA-4 Day 0, aPD-1 Day 0, 3, 6",1010 mm^3
same,Tumor volume,"Study Day 22, MRTX1719 100 mg/kg QD, aCTLA-4 Day 0, aPD-1 Day 0, 3, 6",1171 mm^3
same,Tumor volume,"Study Day 24, MRTX1719 100 mg/kg QD, aCTLA-4 Day 0, aPD-1 Day 0, 3, 6",1312 mm^3
same,Tumor volume,"Study Day 27, MRTX1719 100 mg/kg QD, aCTLA-4 Day 0, aPD-1 Day 0, 3, 6",1644 mm^3
same,Tumor volume,"Study Day −1 (before dosing), n=10/group",82 mm^3
same,% TGI (Day 17),"Tumor Growth Inhibition vs vehicle, Day 17, MRTX1719 100 mg/kg QD, aCTLA-4 Day 0, aPD-1 Day 0, 3, 6",43.5%
